Tests used:
[1] = system: Hepatitis C virus; test: Inhibition of HCV 1b NS5B polymerase by Microbeta scintillation counter; design: species or system Hepatitis C virus subtype 1b
[2] = Inhibition of HCV 1a isolate H77 NS5B polymerase by Microbeta scintillation counter; design: species or system Hepatitis C virus subtype 1a
[3] = system: Hepatitis C virus; test: Antiviral activity against HCV 1b infected in human Huh7/C24 after 72 hrs; type: functional, organism-based, Hepacivirus hominis; details: genotype 1b, Huh-7, 72 h
[4] = Cytotoxicity against human Huh7/C24 after 72 hrs; type: cell-based, Huh-7; details: Huh7/C24 cells
[5] = Metabolic stability in human liver microsomes assessed as half life; type: ADME, Microsome
[6] = Metabolic stability in human liver microsomes assessed as compound remaining at 1 uM after 60 mins; type: ADME, Microsome; details: read-out: Stability
[7] = Metabolic stability in monkey liver microsomes assessed as half life; type: ADME, Macaca mulatta, Microsome; details: rhesus monkey
[8] = Metabolic stability in monkey liver microsomes assessed as compound remaining at 1 uM after 60 mins; type: ADME, Macaca mulatta, Microsome; details: rhesus monkey, read-out: Stability
[9] = Apparent permeability across human Caco-2 cells from apical to basolateral side in human Caco2 cell membrane; type: ADME, cell-based
[10] = Oral bioavailability in cynomolgus monkey at 1 mg/kg; type: ADME, organism-based, Macaca fascicularis; details: in vivo
[11] = system: Cynomolgus monkey; test: AUC (0 to infinity) in cynomolgus monkey at 1 mg/kg, po; type: ADME, organism-based, Macaca fascicularis, Plasma; design: time infinity, dose 1 mg/kg, route oral; details: in vivo
[12] = Clearance in cynomolgus monkey at 1 mg/kg, iv; type: ADME, organism-based, Macaca fascicularis; design: dose 1 mg/kg, route intravenous; details: in vivo
[13] = Ratio of plasma concentration in po dosed cynomolgus monkey after 12 hrs to EC50 for HCV 1b; type: ADME, organism-based; details: in vivo
[14] = system: Cynomolgus monkey; test: AUC (0 to infinity) in cynomolgus monkey at 1 mg/kg, iv; type: ADME, organism-based, Macaca fascicularis, Plasma; design: dose 1 mg/kg, route intravenous, time infinity; details: in vivo

## CS(=O)(=O)Nc1ccc2c(c1)S(=O)(=O)N=C(C1=C(O)[C@H]3CCC[C@H]3N(Cc3ccc(F)c(F)c3)C1=O)N2
[1]
  IC50: < 10 nM
[2]
  IC50: 29 nM
[3]
  EC50: 45 nM
[4]
  CC50 at 72 h: > 1000 nM
[5]
  half-life: > 1 h
[6]
  remaining at 1 h, 1 µM: 88%
[7]
  half-life: > 1 h
[8]
  remaining at 1 h, 1 µM: 100%
[9]
  Papp A→B: 0.83 ×10⁻⁶ cm/s
[10]
  bioavailability: 12%
[11]
  AUC: 1840 ng·h/mL
[12]
  clearance: 1.2 mL/min/kg
[13]
  Ratio: 1.33
[14]
  AUC: 16000 ng·h/mL

## CS(=O)(=O)Nc1ccc2c(c1)S(=O)(=O)N=C(C1=C(O)C3CCCCCC3N(Cc3ccc(F)cc3)C1=O)N2 (racemic)
[1]
  IC50: 57 nM
[2]
  IC50: 42 nM
[3]
  EC50: 74 nM
[4]
  CC50 at 72 h: > 33000 nM
[5]
  half-life: 0.783 h
[7]
  half-life: > 1 h
[8]
  remaining at 1 h, 1 µM: 81%
[9]
  Papp A→B: 0.95 ×10⁻⁶ cm/s
[10]
  bioavailability: 14%
[11]
  AUC: 655 ng·h/mL
[12]
  clearance: 4.1 mL/min/kg
[13]
  Ratio: 0.37
[14]
  AUC: 4840 ng·h/mL

## CS(=O)(=O)Nc1ccc2c(c1)S(=O)(=O)N=C(C1=C(O)[C@@H]3CCCC[C@@H]3N(Cc3ccc(F)cc3)C1=O)N2
[1]
  IC50: 47 nM
[2]
  IC50: 43 nM
[3]
  EC50: 350 nM
[4]
  CC50 at 72 h: > 33000 nM
[5]
  half-life: > 1 h
[6]
  remaining at 1 h, 1 µM: 80%
[7]
  half-life: > 1 h
[8]
  remaining at 1 h, 1 µM: 83%
[9]
  Papp A→B: 1 ×10⁻⁶ cm/s
[10]
  bioavailability: 6%
[11]
  AUC: 610 ng·h/mL
[12]
  clearance: 1.7 mL/min/kg
[13]
  Ratio: 0.03
[14]
  AUC: 10000 ng·h/mL

## CC(C)(C)CCN1C(=O)C(C2=NS(=O)(=O)c3cc(NS(C)(=O)=O)ccc3N2)=C(O)C2CCCCC21 (racemic)
[1]
  IC50: 43 nM
[2]
  IC50: 66 nM
[3]
  EC50: 33 nM
[4]
  CC50 at 72 h: > 33000 nM
[5]
  half-life: 0.267 h
[7]
  half-life: 0.133 h
[9]
  Papp A→B: 3.1 ×10⁻⁶ cm/s
[10]
  bioavailability: 7%
[11]
  AUC: 239 ng·h/mL
[12]
  clearance: 4.9 mL/min/kg
[13]
  Ratio: 0.11
[14]
  AUC: 3520 ng·h/mL

## CS(=O)(=O)Nc1ccc2c(c1)S(=O)(=O)N=C(C1=C(O)[C@H]3CCCC[C@H]3N(Cc3ccc(F)cc3)C1=O)N2
[1]
  IC50: 27 nM
[2]
  IC50: 63 nM
[3]
  EC50: 120 nM
[4]
  CC50 at 72 h: > 1000 nM
[5]
  half-life: > 1 h
[6]
  remaining at 1 h, 1 µM: 99%
[7]
  half-life: > 1 h
[8]
  remaining at 1 h, 1 µM: 100%
[9]
  Papp A→B: 0.67 ×10⁻⁶ cm/s
[10]
  bioavailability: 12%
[11]
  AUC: 2910 ng·h/mL
[12]
  clearance: 0.7 mL/min/kg
[13]
  Ratio: 0.9
[14]
  AUC: 25300 ng·h/mL

Source: ChEMBL document CHEMBL1153893, “5,6-Dihydro-1H-pyridin-2-ones as potent inhibitors of HCV NS5B polymerase” (Bioorg Med Chem Lett, 2009)
